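All cell lines were grown in 96-well plates and treated with compound for 48 hours. Here, GI50 denotes the concentration required for 50% inhibition of growth. TGI: total growth inhibition.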
Key:
Experiment in all cases: inhibition of tumour cell growth, NCI panel, 48 h
[1] = tested on: OVCAR-4 ovarian
[2] = tested on: IGROV1 ovarian
[3] = tested on: ACHN renal
[4] = tested on: SK-MEL-28 melanoma
[5] = tested on: NCI-H23 lung
[6] = tested on: A549 NSCLC
[7] = tested on: OVCAR-8 ovarian
[8] = tested on: UACC-62 melanoma
[9] = tested on: MDA-MB-231 breast
[10] = tested on: HL-60(TB) leukemia
[11] = tested on: HCT-116 colon
[12] = tested on: NCI/ADR-RES ovarian
[13] = tested on: OVCAR-5 ovarian
[14] = tested on: MALME-3M melanoma
[15] = tested on: LOX IMVI melanoma
[16] = tested on: SK-MEL-5 melanoma
[17] = tested on: NCI-H522 lung
[18] = tested on: OVCAR-3 ovarian
[19] = tested on: A498 renal
[20] = tested on: BT-549 breast
[21] = tested on: COLO 205 colon
[22] = tested on: HS 578T breast
[23] = tested on: MCF7 breast
[24] = tested on: CCRF-CEM leukemia
[25] = tested on: SK-MEL-2 melanoma
[26] = tested on: CAKI-1 renal
[27] = tested on: NCI-H226 lung
[28] = tested on: KM12 colon
[29] = tested on: SF-295 CNS
[30] = tested on: RXF 393 renal
[31] = tested on: RPMI-8226 leukemia
[32] = tested on: 786-0 renal
[33] = tested on: MOLT-4 leukemia
[34] = tested on: U251 CNS
[35] = tested on: MDA-MB-435
[36] = tested on: HOP-92 NSCLC
[37] = tested on: UO-31 renal
[38] = tested on: SW-620 colon
[39] = tested on: HT29 colon
[40] = tested on: DU-145 prostate
[41] = tested on: SR leukemia
[42] = tested on: PC-3 prostate
[43] = tested on: HCT-15 colon
[44] = tested on: NCI-H460 lung
[45] = tested on: SK-OV-3 ovarian
[46] = tested on: SNB-19 CNS
[47] = tested on: K-562 leukemia
[48] = tested on: SNB-75 CNS
[49] = tested on: SN12C renal
[50] = tested on: M14 melanoma
[51] = tested on: EKVX NSCLC
[52] = tested on: UACC-257 melanoma
[53] = tested on: HCC-2998 colon
[54] = tested on: SF-539 CNS
[55] = tested on: T-47D breast
[56] = tested on: TK-10 renal
[57] = tested on: SF-268 CNS
[58] = tested on: HOP-62 NSCLC

Structure (SMILES): COc1cc2c(cc1O)N=C[C@@H]1C[C@@H](F)CN1C2=O
- GI50 [1]: 3930 nM
- TGI [1]: 14500 nM
- GI50 [2]: 1650 nM
- TGI [2]: 8970 nM
- GI50 [3]: 2580 nM
- TGI [3]: 6150 nM
- GI50 [4]: 2900 nM
- TGI [4]: 9390 nM
- GI50 [5]: 1820 nM
- TGI [5]: 4440 nM
- GI50 [6]: 7970 nM
- TGI [6]: > 19700 nM
- GI50 [7]: 6370 nM
- TGI [7]: 13900 nM
- GI50 [8]: 1810 nM
- TGI [8]: 3460 nM
- GI50 [9]: 1840 nM
- TGI [9]: 6210 nM
- GI50 [10]: 588 nM
- TGI [10]: 10100 nM
- GI50 [11]: 1830 nM
- TGI [11]: 5940 nM
- GI50 [12]: 1870 nM
- TGI [12]: 6150 nM
- GI50 [13]: 965 nM
- TGI [13]: 6660 nM
- GI50 [14]: 789 nM
- TGI [14]: 2880 nM
- GI50 [15]: 2030 nM
- TGI [15]: 7210 nM
- GI50 [16]: 817 nM
- TGI [16]: 2320 nM
- GI50 [17]: 289 nM
- TGI [17]: 970 nM
- TGI [18]: 808 nM
- GI50 [19]: 938 nM
- TGI [19]: 2890 nM
- GI50 [20]: 869 nM
- TGI [20]: 5830 nM
- GI50 [21]: 3180 nM
- TGI [21]: 11500 nM
- GI50 [22]: 96.4 nM
- TGI [22]: 2130 nM
- GI50 [23]: 608 nM
- TGI [23]: 9060 nM
- GI50 [24]: 304 nM
- TGI [24]: 3300 nM
- GI50 [25]: 1160 nM
- GI50 [26]: 281 nM
- TGI [26]: 1500 nM
- GI50 [27]: 2370 nM
- TGI [27]: 5390 nM
- GI50 [28]: 1810 nM
- TGI [28]: 5040 nM
- GI50 [29]: 712 nM
- TGI [29]: 4330 nM
- GI50 [30]: 898 nM
- TGI [30]: 2160 nM
- GI50 [31]: 216 nM
- TGI [31]: 552 nM
- GI50 [32]: 2050 nM
- TGI [32]: 12300 nM
- GI50 [33]: 283 nM
- TGI [33]: 1230 nM
- GI50 [34]: 1830 nM
- TGI [34]: 10900 nM
- GI50 [35]: 1550 nM
- TGI [35]: 3510 nM
- GI50 [36]: 269 nM
- TGI [36]: 719 nM
- GI50 [37]: 1140 nM
- TGI [37]: 9620 nM
- GI50 [38]: 1160 nM
- TGI [38]: 4900 nM
- GI50 [39]: 4100 nM
- TGI [39]: > 44000 nM
- GI50 [40]: 964 nM
- TGI [40]: 8860 nM
- GI50 [41]: 173 nM
- TGI [41]: 602 nM
- GI50 [42]: 1830 nM
- TGI [42]: 9180 nM
- GI50 [43]: 2890 nM
- TGI [43]: 9330 nM
- GI50 [44]: 1790 nM
- TGI [44]: 4610 nM
- GI50 [45]: 5910 nM
- TGI [45]: 18300 nM
- GI50 [46]: 2790 nM
- TGI [46]: 8660 nM
- GI50 [47]: 367 nM
- TGI [47]: 4810 nM
- GI50 [48]: 15500 nM
- TGI [48]: 52400 nM
- GI50 [49]: 2520 nM
- TGI [49]: 8710 nM
- GI50 [50]: 1610 nM
- TGI [50]: 3730 nM
- GI50 [51]: 2850 nM
- TGI [51]: 9800 nM
- GI50 [52]: 17500 nM
- TGI [52]: 34400 nM
- GI50 [53]: 1980 nM
- TGI [53]: 5660 nM
- GI50 [54]: 1190 nM
- TGI [54]: 4320 nM
- GI50 [55]: 5290 nM
- TGI [55]: 32200 nM
- GI50 [56]: 1900 nM
- TGI [56]: 13000 nM
- GI50 [57]: 449 nM
- TGI [57]: 9970 nM
- GI50 [58]: 2550 nM
- TGI [58]: 9650 nM

— PubChem BioAssay (NCI)
